Experiments:
Gamma-glutamyl hydrolase = target: T1, Gamma-glutamyl hydrolase (Homo sapiens, UniProt Q92820); assay: Compound was tested for inhibitory potency against gamma-Glutamyl Hydrolase.
T1 sequence (Q92820 whole entry): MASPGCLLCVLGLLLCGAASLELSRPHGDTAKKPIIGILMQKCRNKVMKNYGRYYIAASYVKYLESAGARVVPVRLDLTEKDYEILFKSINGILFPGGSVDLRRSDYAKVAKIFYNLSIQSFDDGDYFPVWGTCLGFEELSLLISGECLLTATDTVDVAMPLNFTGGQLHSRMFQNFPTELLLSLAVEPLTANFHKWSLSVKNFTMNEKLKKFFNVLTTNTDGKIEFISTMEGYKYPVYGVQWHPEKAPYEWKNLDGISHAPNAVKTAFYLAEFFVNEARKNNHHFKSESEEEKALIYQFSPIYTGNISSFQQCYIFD

[1] = Phosphorylation rate constant was evaluated.; assay type: ADME
[2] = Dissociation constant was evaluated.; assay type: physicochemical

## O=C(O)CC[C@H](NP(=O)(O)c1ccccc1)C(=O)O
Gamma-glutamyl hydrolase
  Ki: 0.95 nM

## COP(=O)(N[C@@H](CCC(=O)O)C(=O)O)OC
[1]
  kp: 2.42 min⁻¹
Gamma-glutamyl hydrolase
  Ki: 10.9 M⁻¹
[2]
  Kd: 0.223 M⁻¹

## COP(=O)(N[C@@H](CCC(=O)O)C(=O)O)c1ccccc1 (some centres not stated)
[1]
  kp: 7.24 min⁻¹
Gamma-glutamyl hydrolase
  Ki: 0.264 M⁻¹
[2]
  Kd: 27.4 M⁻¹

From ChEMBL document CHEMBL1130841, “Evaluation of phosphorus-containing inhibitors of gamma-glutamyl hydrolase” (Bioorg Med Chem Lett, 1998)
